Reference: patent US9969771B2, “Tetrapeptide having effect of inhibiting VEGF-induced angiogenesis and use thereof” (AVIXGEN INC., priority 2015, dated 2018)
pIC50: −log10 of the molar value. Where a SMILES comes first, the peptide text is derived from it. Where no end group is shown, it is not given here. The star is where a group is joined. FITC = O=C1OC2(c3ccc(O)cc3Oc3cc(O)ccc32)c2ccc(NC(=S)*)cc21

Assays:
[1] = test system: HUVECs; assay: FACS analysis of FITC-RLYE binding to HUVECs; parameters: species or system human
Method: HUVECs were cultured in a 60-mm culture plate for 24 hours. The cells were isolated from the plate with 5 mM EDTA-containing phosphate-buffered saline (PBS), washed with PBS three times, and suspended in 2% FBS/0.1% bovine serum albumin-containing PBS. Afterward, before or after the reaction with FITC-conjugated RLYE (SEQ ID NO: 2) (15 nM), the cells were treated with VEGF (100 ng/ml), stored on ice for 30 minutes, fixed in 2% paraformaldehyde, and assessed with a fluorescence activated cell sorter (FACS Calibur, Becton Dickinson) by flow cytometry.

[2] = test system: HUVECs; assay: VEGF-induced HUVEC proliferation, [3H]-thymidine incorporation assay; type: cell-based, human; details: for inhibition of VEGF-induced HUVEC proliferation: VEGF 10 ng/ml, [3H]-thymidine incorporation; for pIC50: 3 h
Method: Human umbilical vein endothelial cells (HUVECs) were cultured in M199 medium, and during experiments, the cells were always used at passages 2 to 7. Meanwhile, mouse melanoma cells (B16F1 and B16F10) and human colorectal tumor cells (HCT116) were cultured in RPMI media supplemented with 10% FBS, 1 mM sodium pyruvate, 10 mM 4-(2-hydroxyethyl)-1-piperazineethanesulfonic acid and 100 U/ml penicillin-streptomycin, and human multiple myeloma cells (IM-9 and RPMI 8226) were cultured in RPMI-1640 media. All of the cells were cultured at 37° C. with 5% CO2 in a humidified incubator.
Angiogenic activity was determined by measuring cell proliferation, migration and tube formation. HUVEC proliferation was analyzed by a [3H]-thymidine incorporation assay. The HUVECs were seeded in a 24-well plate coated with gelatin at a density of 2×10^4 cells/well. […] […] […] 3H-labeled polymer DNA was evaluated with a liquid scintillation counter.

[3] = test system: zebrafish; assay: Zebrafish angiogenesis assay; type: in vivo; details: zebrafish embryo
Method: An adult zebrafish and an embryo were grown and maintained in a standard laboratory environment, and a zebrafish experiment was conducted according to the protocols approved by the animal ethics committee of Chungnam National University. To analyze angiogenesis, at 48 hours post fertilization (hpf), the embryo was anesthetized with tricaine (MS-222, 0.02%, embryo buffer), a peptide was administered, and FITC-dextran (2,000 kDa, Sigma) was further injected. A blood vessel image was obtained with a Leica DM5000B system at 72 hpf. As a probe for whole mount in situ hybridization, digoxigenin (DIG)-labeled RNA prepared by a cad5 (NM_001003983) gene was used. Meanwhile, a peptide was injected into the 18-hpf embryo collected at 25 hpf, fixed with 4% paraformaldehyde, washed with PBS (in 0.1% Tween20), and hybridized with DIG-labeled riboprobes (hybridization buffer). Subsequently, the resulting product was reacted with an alkaline phosphatase (AP)-conjugated anti-DIG antibody. Following reaction with an AP staining solution, a staining status was observed and visualized under a microscope (Leica, MZ-16).

[4] = test system: ERK; assay: Western blot, ERK phosphorylation in HUVECs; type: cell-based, human; details: VEGF / VEGF-A stimulated
Method: Cells were lyzed in RIPA buffer, and 50 μg of proteins were isolated by SDS-PAGE and then transferred to a PVDF membrane. The membrane was reacted with an antibody with respect to a target protein for 2 hours. The membrane was washed twice and reacted with a horseradish peroxidase-conjugated antibody, and then an amount of the target proteins was assessed with an enhanced chemiluminescence system.

Compound: FITC-RLYE: FITC-conjugated RLYE (SEQ ID NO: 2) peptide used for FACS and confocal binding ({FITC}-RLYE)
- binding to HUVEC surface (FACS) ([1]; VEGF-A-pretreated cells): did not bind
- binding to HUVEC surface (FACS) ([1]; cells not treated with VEGF-A): bound to a cell surface

Compound: EYLR: scrambled peptide against RLYE, used as a control [reference compound]
- inhibition of VEGF-induced HUVEC proliferation [2]: did not exhibit a significant inhibitory effect
- formation of intersegmental vessels (ISV) [3]: did not affect the ISV formation
- formation of subintestinal vessels (SIV) [3]: did not affect the SIV formation

Compound: KLFD: synthesized tetrapeptide based on KLYD
- inhibition of VEGF-induced HUVEC proliferation [2]: inhibitory effect similar to the positive control

Compound: CC(C)C[C@H](NC(=O)[C@@H](N)CCCCN)C(=O)N[C@@H](Cc1ccc(O)cc1)C(=O)N[C@@H](CCC(=O)O)C(=O)O [KLYE] (H-KLYE-OH; N-terminus and C-terminus assumed)
- pIC50 [2]: 9.52
- inhibition of VEGF-induced HUVEC proliferation [2]: effectively inhibited
- inhibition of VEGF-induced ERK phosphorylation [4]: more effectively inhibited

Compound: CC(C)C[C@H](NC(=O)[C@@H](N)CCCNC(=N)N)C(=O)N[C@@H](Cc1ccc(O)cc1)C(=O)N[C@@H](CC(=O)O)C(=O)O [RLYD] (H-RLYD-OH; N-terminus and C-terminus assumed)
- pIC50 [2]: 9.85
- inhibition of VEGF-induced HUVEC proliferation [2]: effectively inhibited
- inhibition of VEGF-induced ERK phosphorylation [4]: more effectively inhibited

Compound: CC(C)C[C@H](NC(=O)[C@@H](N)CCCCN)C(=O)N[C@@H](Cc1ccc(O)cc1)C(=O)N[C@@H](CC(=O)O)C(=O)O [KLYD, reference compound] (H-KLYD-OH; N-terminus and C-terminus assumed)
- pIC50 [2]: 9.10
- inhibition of VEGF-induced HUVEC proliferation [2]: significantly inhibited

Compound: RLME: synthesized tetrapeptide based on KLYD
- inhibition of VEGF-induced HUVEC proliferation [2]: did not exhibit a significant inhibitory effect

Compound: CC(C)[C@H](NC(=O)[C@@H](N)CCCNC(=N)N)C(=O)N[C@@H](Cc1ccc(O)cc1)C(=O)N[C@@H](CCC(=O)O)C(=O)O [RVYE] (H-RVYE-OH; N-terminus and C-terminus assumed)
- pIC50 [2]: 9.41
- inhibition of VEGF-induced HUVEC proliferation [2]: effectively inhibited
- inhibition of VEGF-induced ERK phosphorylation [4]: more effectively inhibited

Compound: KLWD: synthesized tetrapeptide based on KLYD
- inhibition of VEGF-induced HUVEC proliferation [2]: did not exhibit a significant inhibitory effect

Compound: KIYD: synthesized tetrapeptide based on KLYD
- inhibition of VEGF-induced HUVEC proliferation [2]: inhibitory effect similar to the positive control
